Source: patent publication US20250090510A1, “eIF4G1-eIF1 INHIBITORS AND USE THEREOF” (YEDA RESEARCH AND DEVELOPMENT CO. LTD., priority 2022, published 2025)

Tests used:
eIF1-eIF4G1 interaction = target: T1, eIF1-eIF4G1 interaction (Homo sapiens, UniProt Q04637); test: GST pull down of His-eIF1 with GST-eIF4G1; assay type: binding; conditions: GST-eIF4G1 (aa 675-725) with His-eIF1, vs DMSO
T1 construct: GST-eIF4G1 (aa 675-725) was incubated with His-eIF1; made in house; host or cells: His-eIF1: E. coli BL21
T1 sequence (Q04637 675-725): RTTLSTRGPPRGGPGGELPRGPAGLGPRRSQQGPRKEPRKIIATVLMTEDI
Source text: FIGS. 1A-G: Identification and initial characterization of eIF1-eIF4G1 inhibitors using a high-throughput drug screen (HTS). (1A) A flowchart describing the steps of the recombinant eIF1-eIF4G1 split-RL HTS. (1B) Selection of drugs that inhibit leaky scanning. HEK293T cells were transfected with a short 5′UTR bearing GFP reporter gene described on the top, treated with the indicated HTS hits, and then analyzed by western blot with GFP antibody. US and DS denote upstream and downstream AUG initiation sites, respectively. (1C) A graph showing the change in the ratio of the upstream and downstream AUG following treatment with the indicated drugs. (1D) The chemical structure of the eIF1-eIF4G1 inhibitors, i14G1-10 and i14G1-12. (1E) His-tagged eIF4G1 and His-tagged eIF1 were expressed in BL21 bacteria and purified using nickel NTA beads. Purified His-tagged eIF4G1 and His-tagged eIF1 were incubated with the indicated doses of either i14G1-10 (0-256 μM) or i14G1-12 (0-256 μM) for 5 minutes, followed by fluorescence measurement. For eIF4G1 excitation was at 280 nm and emission was at 350 nm. For eIF1 excitation was at 274 nm and emission was at 304 nm. The data shown represent three independent replicates. IC50 was calculated using Graphpad prism 9. (1F-1G) Western blots of GST pull down. […]

HEK293T cells = test: Polysome fractionation and real-time PCR of specific genes; assay type: cell-based, human; conditions: 3 h
Description: FIGS. 5A-D: 5′UTR length-dependent translational control by the eIF1-eIF4G1. […] The asterisks denote a statistically significant difference. **p<0.01, ****p<0.0001. (5B) A scheme of the firefly reporter genes that are driven by long (354 nt) and short (111 nt) 5′ UTR length, is shown on the top. HEK293T cells were transfected with these reporter genes. After 4 h, transfected cells were treated with DMSO, i14G1-10 (5 μM), or i14G1-12 (5 μM) for 16 h and analyzed for firefly luciferase activities. The graph presents the normalized luminescence activity of the long 5′UTR and the short 5′UTR reporters in the indicated treatments. The data are shown as mean±SEM, n=6. The asterisks denote statistically significant difference compared to DMSO, according to Student's t-tests (one-tailed, paired). *p<0.05; **p<0.01. (5C-D) HEK293T cells were treated with DMSO, i14G1-10, and i14G1-12 for 3 h, lysed, and subjected to sucrose gradient sedimentation and fractionation. Fractions were pooled according to polysome profile as free (grey), light (blue), and heavy (yellow) polysomal fractions. cDNA was prepared from each fraction pool and real-time PCR was performed for the indicated TISU genes (5C) or histone genes (5D). The data are shown as mean±SEM, n=3. The asterisks denote statistically significant difference compared to DMSO, according to Student's t-tests (one-tailed, paired), *p<0.05; **p<0.01.
FIGS. 7A-E: (7A) Ribo-seq and TI-seq read tracks of representative stress response-associated mRNAs (DDIT3 and GADD34) in DMSO (black), i14G1-10 (red), and i14G1-12 (green) samples. The red triangle represents 5′UTR TIS codons and the green denotes annotated TIS. Black arrows show the translation direction. […] The graphs in the lower panel are the quantification of ATF4's uORF1′, uORF1, uORF2, and main-ORF reads of the Ribo-seq data. The asterisks denote statistically significant difference compared to DMSO, according to Student's t-tests (one-tailed, paired). **p<0.01, ***p<0.001, ****p<0.0001. (7C) HEK293T cells were treated with DMSO, i14G1-10, and i14G1-12 for 3 h, lysed and subjected to sucrose gradient sedimentation and fractionation. Fractions of the free (grey), light (blue), and heavy (yellow) were pooled. cDNA was prepared from each fraction pool and real-time PCR was performed for the indicated ISR genes. The data are shown as mean±SEM, n=3. The asterisks denote statistically significant difference compared to DMSO, according to Student's t-tests (one-tailed, paired). *p<0.05; **p<0.01. (7D) HEK293T cells were treated with DMSO, i14G1-10, and i14G1-12 for 3 h. The respective cell lysates were subjected to western blot to check the protein levels of ATF3 and ATF4 (left). The graph represents the relative chemiluminescence signal intensity (mean±SEM) for ATF4 and AT3 normalized to GAPDH protein levels of three biological replicates. The asterisks denote statistically significant difference compared to DMSO, according to Student's t-tests (one-tailed, paired), *p<0.05. (7E) Control MEFs and eIF2α S52A mutant MEFs were treated with DMSO (vehicle control), and sub-cytotoxic concentrations of i14G1-10 (30 μM) and i14G1-12 (15 μM) for 3h. Cell lysates were then subjected to sucrose gradient sedimentation to obtain polysome profiles.
Polysome profile and real-time PCR. HEK293T cells were cultured in 10 cm plate up to 80% confluence, followed by DMSO, i14G1-10 (20 μM), and i14G1-12 (10 μM) treatment. After 3 h, the cells were incubated with 100 μg/ml cycloheximide for 5 minutes, washed with cold polysome buffer (20 mM Tris pH8, 140 mM KCl, 5 mM MgCl2, and 100 μg/ml cycloheximide). Cells were collected in 500-μl polysome buffer supplemented with 0.5% Triton, 0.5% DOC, 1.5 mM DTT, 150 units RNase inhibitor, and 5-μl protease inhibitor cocktail. Lysed samples were centrifuged at 12000 RPM, 5 minutes at 4° C. The cleared lysate was loaded onto sucrose density gradient (10-50%) and centrifuged at 38000 RPM for 105 minutes at 4° C. […]

parental NIH3T3 cells = test: Polysome profiling and real-time PCR in parental cells; assay type: cell-based, mouse; conditions: i14G1-10 30 μM, i14G1-12 15 μM, 3 h

Row | SMILES | association of eIF1 with eIF4G1 (eIF1-eIF4G1 interaction) | translation of ACTB mRNA (control) in polysome fractions (HEK293T cells) | translation of eight histone genes in polysome fractions (HEK293T cells) | translation of seven TISU genes in polysome fractions (HEK293T cells) | translation of stress-response genes in Free, Light and Heavy polysome fractions (HEK293T cells) | overall translation, polysome to monosome ratio (P/M) (parental NIH3T3 cells) | translation of ISR genes in polysome fractions (parental NIH3T3 cells)
1 | O=C(/C=C/Sc1ccc(C(F)(F)F)cn1)c1ccccc1 [i14G1-10] | decrease in the association of eIF1 with eIF4G1 | decreased translation of the ACTB mRNA | general trend of upregulation | either unaffected or slightly upregulated | all found to be upregulated | significant reduction in translation efficiency | upregulated
2 | Cn1ccnc1S/C(=C/C=C(C#N)C#N)c1ccc(Cl)cc1 [i14G1-12] | decrease in the association of eIF1 with eIF4G1 | decreased translation of the ACTB mRNA | general trend of upregulation | either unaffected or slightly upregulated | all found to be upregulated | significant reduction in translation efficiency | upregulated
